Assay results reported in the NIST ThermoML archive (doi:10.1021/je300217x).
Numbers after ± are expanded uncertainties.

Conditions: Liquid, Closed cell (Static) method

FC1(F)C(F)(F)C(F)(F)C1(F)F [octafluorocyclobutane]
Conditions | vapor or sublimation pressure [kPa]
247.9 K | 39 ± 3
248.25 K | 41 ± 3
248.3 K | 40 ± 3
253.38 K | 51 ± 3
263 K | 81 ± 3
265.93 K | 92 ± 3
267.92 K | 99 ± 3
269.89 K | 110 ± 3
272.9 K | 122 ± 3
277.87 K | 148 ± 3
282.9 K | 180 ± 3
287.89 K | 216 ± 3
292.89 K | 257 ± 4
303.37 K | 362 ± 4
313.09 K | 486 ± 4
322.53 K | 635 ± 5
335.34 K | 889 ± 5
342.37 K | 1055 ± 6
352.36 K | 1329 ± 7

FC(F)=C(F)F [tetrafluoroethene]
Conditions | vapor or sublimation pressure [kPa]
248.2 K | 864 ± 7
248.3 K | 866 ± 8
253.34 K | 1017 ± 8
263 K | 1357 ± 10
263.18 K | 1367 ± 9
273.14 K | 1804 ± 11
282.9 K | 2330 ± 12
283.19 K | 2340 ± 12
